Results from patent EP0360850B1, “ANTIMICROBIAL AGENTS” (GIVAUDAN-ROURE (INTERNATIONAL) S.A., priority 1988, dated 1989).
In brackets after ≈: the same amount, converted by molar mass. Where two headings read alike, the source gives them in different places.

Experiments:
Aspergillus niger = assay: Preservative test in cosmetic lotion, weekly reinoculation; assay type: cell-based; conditions: A.n.
Description: (§1) a. Cutting Oil Emulsions. […] Various aliquots of a 6% solution of the test compound in ethanol were added to cutting oil emulsions prepared by diluting Kutwell® 30 cutting oil concentrate 1 to 30 with water. These samples were inoculated with a culture of Ps. aeruginosa and incubated at 28°C on a rotary shaker. At weekly intervals, the samples were examined for microorganisms and then reinoculated and incubated. […] Cosmetic compositions. […] Serial dilutions of the compounds in dimethylformamide were added to a prepared, sterile cosmetic lotion of the following composition:
(§2) Samples of the lotion containing varying levels of the acrylonitrile derivatives were divided into two portions; one portion was inoculated with a spore suspension of A. niger, and the other portion with a 24-hour nutrient broth culture of Ps. aeruginosa. These two organisms are frequently found as contaminants in cosmetic products. The samples were incubated for a 4-week period with weekly examinations for the growth of the organisms. At weekly intervals, the samples were also reinoculated with the test organisms. Presence of fungal growth was determined macroscopically while bacterial contamination was determined by streaking one 4-mm loopful (0.01ml) of the lotion onto the surface of trypticase glucose extract agar (Baltimore Biological Laboratories, Baltimore, MD) containing 0.005% triphenyl tetrazolium chloride and letheen antidote. Results of these tests showing the minimum inhibitory concentration through the 4-week incubation period are tabulated in Table IV and show, once again, that the compounds where R is methyl or ethyl show a broad spectrum activity for the preservation of cosmetic products against the type of fungus and bacterium most likely to cause problems in cosmetics.

Pseudomonas aeruginosa = assay: as above; assay type: cell-based
Description: as §1, §2

[1] = Week 1, read-out: Minimum Inhibitory Concentration Week 1
[2] = Week 2, weekly reinoculation, read-out: Minimum Inhibitory Concentration Week 2
[3] = Week 3, weekly reinoculation, read-out: Minimum Inhibitory Concentration Week 3
[4] = Week 4, weekly reinoculation, read-out: Minimum Inhibitory Concentration Week 4
[5] = read-out: Minimum Inhibitory Concentration Week 1
[6] = read-out: Minimum Inhibitory Concentration Week 2
[7] = read-out: Minimum Inhibitory Concentration Week 3
[8] = read-out: Minimum Inhibitory Concentration Week 4

Row | Structure (SMILES) | MIC (Aspergillus niger; [1]) [µg/mL] | MIC (Aspergillus niger; [2]) [µg/mL] | MIC (Aspergillus niger; [3]) [µg/mL] | MIC (Aspergillus niger; [4]) [µg/mL] | MIC (Pseudomonas aeruginosa; [5]) [µg/mL] | MIC (Pseudomonas aeruginosa; [6]) [µg/mL] | MIC (Pseudomonas aeruginosa; [7]) [µg/mL] | MIC (Pseudomonas aeruginosa; [8]) [µg/mL] | MIC (Pseudomonas aeruginosa; cosmetic lotion, P.a., Week 1, read-out: Minimum Inhibitory Concentration Week 1) [µg/mL]
1 | CSC=C(Br)C#N [Example 1, α-Bromo-β-methylthio-acrylonitrile] | < 7.8 | < 7.8 | < 7.8 | < 7.8 | < 7.8 | < 7.8 | < 7.8 | < 7.8 | 
2 | CSC=C(Cl)C#N [Example 2, α-Chloro-β-methylthio-acrylonitrile] | < 7.8 | < 7.8 | < 7.8 | < 7.8 | 31 to 62 (≈ 232 to 464 µM) | 15 to 31 (≈ 112 to 232 µM) | 15 to 31 (≈ 112 to 232 µM) | 15 to 31 (≈ 112 to 232 µM) | 
3 | CCSC=C(Cl)C#N [Example 3, α-chloro-β-ethylthio-acrylonitrile] | < 7.8 | < 7.8 | < 7.8 | < 7.8 | 250 to 500 (≈ 1690 to 3390 µM) | 125 to 250 (≈ 847 to 1690 µM) | 125 to 250 (≈ 847 to 1690 µM) | 125 to 250 (≈ 847 to 1690 µM) | 
4 | CCSC=C(Br)C#N [Example 4, α-bromo-β-ethylthio-acrylonitrile] | < 7.8 | < 7.8 | < 7.8 | < 7.8 | 31 to 62 (≈ 161 to 323 µM) | 31 to 62 (≈ 161 to 323 µM) | 31 to 62 (≈ 161 to 323 µM) | 31 to 62 (≈ 161 to 323 µM) | 
5 | CCCSC=C(Cl)C#N [Example 5] | 125 to 250 (≈ 773 to 1550 µM) | 125 to 250 (≈ 773 to 1550 µM) | 125 to 250 (≈ 773 to 1550 µM) | 125 to 250 (≈ 773 to 1550 µM) | > 2000 | 1000 to 2000 (≈ 6190 to 12400 µM) | 1000 to 2000 (≈ 6190 to 12400 µM) | 500 to 1000 (≈ 3090 to 6190 µM) | 
6 | CCCCSC=C(Cl)C#N [Example 6] |  |  |  |  |  |  |  |  | > 2000
